The subject of this experiment is BDF1 mice, Adenocarcinoma 755 s.c., tumor weight T/C. As to the kind of experiment: NCI In Vivo Anticancer Drug Screen. Data for tumor model Adenocarcinoma 755 (subcutaneous) in B6D2F1 (BDF1) mice. The following applies: endpoint: mean tumor weight, higher = larger tumour. A digest of the protocol: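 Transplantable tumor implanted; mice dosed with compound or vehicle; survival or tumor size recorded; ratio of treated to vehicle control reported.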

Where [1] appears, read: dose: 125.0 mg/kg/injection, schedule: Q01DX011 (ip), vehicle: methylcellulose (MC).
The mark [2] stands for this setting: dose: 250.0 mg/kg/injection, schedule: Q01DX011 (ip), vehicle: methylcellulose (MC).

The structures appear in SMILES notation. “And” between values parts separate entries of the source, which are not always exact repeats. Identical values can stand only once.

For the compound `CC1CC(C)(O)CC(C(O)CC2CC(=O)NC(=O)C2)C1=O` (stereo not drawn), the T/C (as a rule, the result in the treated group divided by that in the control group, in per cent) was 71 % of control (dose: 0.05 mg/kg/injection, schedule: Q01DX011 (ip), vehicle: methylcellulose (MC)); 62 % of control (dose: 0.1 mg/kg/injection, schedule: Q01DX011 (ip), vehicle: alkali diluted with saline); 44 % of control (dose: 0.1 mg/kg/injection, schedule: Q01DX011 (ip), vehicle: methylcellulose (MC)); 17 % of control (dose: 0.2 mg/kg/injection, schedule: Q01DX011 (ip), vehicle: alkali diluted with saline); 32 % of control (dose: 0.2 mg/kg/injection, schedule: Q01DX011 (ip), vehicle: methylcellulose (MC)).

As to `NC1(C(=O)O)CCCC1`, the T/C (dose: 4.45 mg/kg/injection, schedule: Q01DX011 (ip), vehicle: carboxymethylcellulose (CMC)) was 71 % of control; the T/C (dose: 7.5 mg/kg/injection, schedule: Q01DX011 (ip), vehicle: methylcellulose (MC)) was 61 % of control; the T/C (dose: 8.9 mg/kg/injection, schedule: Q01DX011 (ip), vehicle: carboxymethylcellulose (CMC)) is 70 % of control; the T/C (dose: 13.12 mg/kg/injection, schedule: Q01DX011 (ip), vehicle: carboxymethylcellulose (CMC)) is 42 % of control; the T/C (dose: 14.24 mg/kg/injection, schedule: Q01DX011 (ip), vehicle: carboxymethylcellulose (CMC)) is 83 % of control; the T/C (dose: 15.0 mg/kg/injection, schedule: Q01DX011 (ip), vehicle: methylcellulose (MC)) was 96 % of control. The T/C reads like this: (dose: 16.0 mg/kg/injection, schedule: Q01DX011 (ip), vehicle: saline) 43 % of control; (dose: 18.0 mg/kg/injection, schedule: Q01DX011 (ip), vehicle: methylcellulose (MC)) 40 % of control; (dose: 23.73 mg/kg/injection, schedule: Q01DX011 (ip), vehicle: carboxymethylcellulose (CMC)) 55 % of control; (dose: 30.0 mg/kg/injection, schedule: Q01DX011 (ip), vehicle: methylcellulose (MC)) 12 % of control; (dose: 31.3 mg/kg/injection, schedule: Q01DX011 (ip), vehicle: saline) 13 % of control; (dose: 35.6 mg/kg/injection, schedule: Q01DX011 (ip), vehicle: carboxymethylcellulose (CMC)) 33 % of control and 38 % of control. Further, the T/C runs as follows: (dose: 37.5 mg/kg/injection, schedule: Q01DX011 (ip), vehicle: methylcellulose (MC)) 16 % of control; (dose: 42.0 mg/kg/injection, schedule: Q01DX011 (ip), vehicle: carboxymethylcellulose (CMC)) 31 % of control; (dose: 42.0 mg/kg/injection, schedule: Q01DX011 (oral), vehicle: saline) 10 % of control; (dose: 52.5 mg/kg/injection, schedule: Q01DX011 (ip), vehicle: carboxymethylcellulose (CMC)) 8 % of control and 14 % of control; (dose: 60.0 mg/kg/injection, schedule: Q01DX011 (ip), vehicle: methylcellulose (MC)) 12 % of control; (dose: 62.5 mg/kg/injection, schedule: Q01DX011 (ip), vehicle: saline) 6 % of control. Moreover, the T/C (dose: 63.0 mg/kg/injection, schedule: Q01DX011 (oral), vehicle: saline) is 4 % of control; the T/C (dose: 70.0 mg/kg/injection, schedule: Q01DX011 (ip), vehicle: carboxymethylcellulose (CMC)) is 4 % of control; the T/C (dose: 95.0 mg/kg/injection, schedule: Q01DX011 (oral), vehicle: saline) is 1 % of control; the T/C (dose: 105.0 mg/kg/injection, schedule: Q01DX011 (ip), vehicle: carboxymethylcellulose (CMC)) was 3 % of control and 6 % of control.

Take `Brc1ccc(CSc2ncnc3nc[nH]c23)cc1`: the T/C is 70 % of control (dose: 43.75 mg/kg/injection, schedule: Q01DX011 (ip), vehicle: methylcellulose (MC)); 28 % of control (dose: 87.5 mg/kg/injection, schedule: Q01DX011 (ip), vehicle: methylcellulose (MC)); 10 % of control (dose: 175.0 mg/kg/injection, schedule: Q01DX011 (ip), vehicle: methylcellulose (MC)); 1 % of control (dose: 350.0 mg/kg/injection, schedule: Q01DX011 (ip), vehicle: methylcellulose (MC)).

On to `NC(Cc1cccs1)C(=O)O` (stereo not drawn), for which the T/C was 71 % of control and 72 % of control (dose: 125.0 mg/kg/injection, schedule: Q01DX011 (ip), vehicle: carboxymethylcellulose (CMC)); 90 % of control under setting [1]; 91 % of control and 106 % of control (dose: 250.0 mg/kg/injection, schedule: Q01DX011 (ip), vehicle: carboxymethylcellulose (CMC)); 155 % of control under setting [2]; 65 % of control and 78 % of control (dose: 500.0 mg/kg/injection, schedule: Q01DX011 (ip), vehicle: carboxymethylcellulose (CMC)); 59 % of control (dose: 500.0 mg/kg/injection, schedule: Q01DX011 (ip), vehicle: methylcellulose (MC)). In addition, the T/C was 96 % of control and 102 % of control (dose: 1000.0 mg/kg/injection, schedule: Q01DX011 (ip), vehicle: carboxymethylcellulose (CMC)); 52 % of control (dose: 1000.0 mg/kg/injection, schedule: Q01DX011 (ip), vehicle: methylcellulose (MC)).

For `Nc1nc(N)c(N)c(N)n1`, the T/C was 82 % of control (dose: 50.0 mg/kg/injection, schedule: Q01DX011 (ip), vehicle: saline); 92 % of control (dose: 200.0 mg/kg/injection, schedule: Q01DX011 (ip), vehicle: saline); 90 % of control (dose: 400.0 mg/kg/injection, schedule: Q01DX011 (ip), vehicle: saline).

Regarding `CCCCn1cnc2c(SCc3ccncc3)nc(N)nc21`, the T/C is, setting by setting: (dose: 3.12 mg/kg/injection, schedule: Q01DX011 (ip), vehicle: methylcellulose (MC)) 35 % of control; (dose: 6.25 mg/kg/injection, schedule: Q01DX011 (ip), vehicle: methylcellulose (MC)) 106 % of control; (dose: 12.5 mg/kg/injection, schedule: Q01DX011 (ip), vehicle: methylcellulose (MC)) 19 % of control; (dose: 25.0 mg/kg/injection, schedule: Q01DX011 (ip), vehicle: methylcellulose (MC)) 1 % of control and 13 % of control.

As to `O=c1[nH]c(=O)c2nc(Br)n(C3OC(CO)C(O)C3O)c2[nH]1` (stereo not drawn), the T/C is, setting by setting: (dose: 30.0 mg/kg/injection, schedule: Q01DX011 (ip), vehicle: carboxymethylcellulose (CMC)) 119 % of control; (dose: 60.0 mg/kg/injection, schedule: Q01DX011 (ip), vehicle: carboxymethylcellulose (CMC)) 105 % of control; (dose: 120.0 mg/kg/injection, schedule: Q01DX011 (ip), vehicle: carboxymethylcellulose (CMC)) 68 % of control; (dose: 240.0 mg/kg/injection, schedule: Q01DX011 (ip), vehicle: carboxymethylcellulose (CMC)) 86 % of control.

For `CCCCn1cnc2c(SCc3ccccc3Cl)nc(N)nc21`, the T/C runs as follows: (dose: 62.5 mg/kg/injection, schedule: Q01DX011 (ip), vehicle: methylcellulose (MC)) 24 % of control; under setting [1], 13 % of control; under setting [2], 5 % of control.

For the origin of these results see PubChem BioAssay AID180 (DTP/NCI, 2004).
